Reference: patent US7928231B2, “Thienopyrazoles” (priority 2003, dated 2011)
Structures can show the parent of a compound that is named as a salt.

Assays:
ITK = biological target: T1, ITK (Homo sapiens, UniProt Q08881); assay: FlashPlate ITK protocol for ITK inhibition determination (ITK autophosphorylation, [γ-33P]ATP); type: biochemical; settings: MBP-tagged ITK, read-out: IC50 (enzyme inhibition)-
T1 construct: made in house
T1 sequence (Q08881 1-620): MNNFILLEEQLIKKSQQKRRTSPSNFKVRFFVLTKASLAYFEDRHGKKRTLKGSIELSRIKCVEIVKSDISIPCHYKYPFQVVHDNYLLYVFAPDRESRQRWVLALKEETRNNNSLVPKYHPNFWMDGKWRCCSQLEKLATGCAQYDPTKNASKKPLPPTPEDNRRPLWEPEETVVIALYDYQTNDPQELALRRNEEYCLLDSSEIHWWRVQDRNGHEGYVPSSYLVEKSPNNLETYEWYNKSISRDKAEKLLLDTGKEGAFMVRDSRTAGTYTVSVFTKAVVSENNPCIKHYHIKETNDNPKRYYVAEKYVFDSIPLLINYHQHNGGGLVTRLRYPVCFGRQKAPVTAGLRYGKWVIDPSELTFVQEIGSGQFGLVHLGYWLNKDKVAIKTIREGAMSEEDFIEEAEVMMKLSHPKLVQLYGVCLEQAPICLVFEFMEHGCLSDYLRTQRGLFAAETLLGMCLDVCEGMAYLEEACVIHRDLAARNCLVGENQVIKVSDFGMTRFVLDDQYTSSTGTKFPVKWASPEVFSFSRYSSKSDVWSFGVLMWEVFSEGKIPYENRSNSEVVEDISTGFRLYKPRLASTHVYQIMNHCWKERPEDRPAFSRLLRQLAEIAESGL
Procedure: ITK kinase is produced with an N-terminal Maltose Binding Protein tag (MW=˜114 kDa) using a Baculovirus expression system. The transfer of radioactive [γ-^33P] phosphate from [γ-^33P]ATP to ITK during the autophosphorylation of ITK is measured by scintillation counting. Streptavidin-coated FlashPlate Plus™ 384 well microplates (PerkinElmer Life Sciences) are designed for in-plate radiometric assays. The interior of each well is permanently coated with a thin layer of scintillant and a covalently bound layer of Streptavidin. ITK is incubated with [γ-^33P]ATP, biotinylated anti-MBP antibody (Cell Signaling Technology™) and test compounds in a 384-well Streptavidin-coated FlashPlate. The biotinylated anti-MBP binds tightly to the MBP-tagged ITK and cross-links it to Streptavidin on the plate surface. Unreacted ^33P-ATP is washed away and ^33P-phosphorylated ITK is measured when the [γ-^33P] incorporated into ITK stimulates the scintillant on the well to emit light. Radioactivity is assessed in a Packard
TopCount scintillation counter. Reagents are pipetted and dispensed using Beckman Biomek robotic equipment. Test compounds (2 μl per well) are pre-diluted from 1 mM 100% dimethyl sulfoxide solutions into water containing 30% dimethyl sulfoxide to produce dose response curves (10 point curves from (final) 30 μM to ˜1 nM); all tests are performed in duplicate. Background binding is assessed by substituting the enzyme inhibitor EDTA (25 mM final concentration) for test compound and maximal binding is assessed by inclusion of assay buffer instead of compound. Test compounds are added to the wells first (2 μl) followed by 10 μl enzyme solution in assay buffer. After 30 minutes pre-incubation, all other reagents are added in a 10 μl volume. The final reagent concentrations/well are as follows: 20 nM enzyme, 0.25 μCi [γ-^33P]ATP, assay buffer: 20 mM HEPES (pH 7.5), 0.15 M NaCl, 3 mM MgCl2, 3 mM MnCl2, 0.01% Triton X-100, 1 mM DTT, 5% glycerol and 0.01% γ-globulin. The plate is incubated at room temperature (RT) for 60 minutes for the kinase reaction. The reaction is stopped with 20 μl of 50 mM EDTA and the biotinylated anti-MBP is allowed to bind to the ITK and the Streptavidin for a further 60 minutes at RT. The unbound reagents are washed away with 2×100 μl phosphate-buffered saline (PBS). Radioactivity is measured for 45 sec/well.

[1] = system: IL-4 production from anti-CD3-stimulated murine splenocytes; assay: Anti-CD3 stimulated IL-4 assay from murine splenocytes; type: cell-based; settings: Mus musculus, Splenocyte, 72 h; BALB/c splenocytes, anti-CD3 stimulation, 3 days, IL-4 ELISA; read-out: IC50 IL-4 release inhibition- assay
Procedure: Anti-CD3 stimulated IL-4 Assay from Murine Splenocytes.
The tyrosine kinase ITK is involved in intracellular signaling events induced by several lymphocyte surface receptors. Since ITK deficient mice show an impairment in IL-4 production from T cells, a cell based assay for IL-4 production is used to measure the cellular potency of the ITK inhibitors of the present invention. In this assay the level of IL-4 is measured from the media of anti-CD3-stimulated murine splenocytes, and the ability of compounds of the present invention to inhibit this response is determined.
Spleens from the mouse strain BALB/c are isolated and used to prepare a suspension of mixed splenocytes. The spleens are homogenized with cell strainer (Falcon Cat#352350 and 5 ml syringe) in RPMI media. The mixture is spun down, and the pellets are suspended in 3 ml of Red Blood Cell Lysing Buffer (Sigma Cat#7757) and left for 10 minutes at room temperature. Cells are spun down again, and resuspended in RPMI with 10% FBS and passed through cell strainer. Total cell numbers are determined with hemocytometer.
Splenocytes are adjusted to a cell density of 10 million per ml of RPMI medium supplemented with 10% Foetal Bovine Serum (FBS) and 100 uls of the suspension plated out per well of a 96 round bottom plate. 50 uls of RPMI medium containing 4× the final concentration of test compound is added per well. For IC50 determination the following concentrations of compound are used. The starting concentration is 10 uM and 7 series of 1:3 dilutions are followed, and each compound concentration is set up in triplicate wells. 50 ul of 4× concentration are added. Cell cultures are then stimulated by addition of 50 ul of a 4 ug/ml solution of anti-CD3 antibody, (BD Bioscience Cat #553166) made up in RPMI plus 10% FBS media, and incubated in a 37° C. CO2 incubator for 3 days. At the end of the 3 day incubation, culture medium is taken and 50 uls used to assay IL-4 production by ELISA (IL-4 ELISA kit from R&D Systems, city. Cat #M4000 kit) according to the standard conditions described by the manufacturer.
IL-4 levels are plotted as a function of compound concentration. The concentration of compound resulting in 50% inhibition of IL-4, termed IC50(IL-4), is determined from the resulting curve.
Assay Procedure • 1. Add 100 ul of 1×10E7/ml mouse splenocytes in RPMI plus 10% FBS media to 96 well round bottom plates. • 2. Add 50 ul of Itk compounds (4× final concentration) in RPMI plus 10% FBS media • 3. Add 50 ul of 4 ug/ml anti-CD3 antibody in RPMI plus 10% FBS media • 4. Incubate at 37 c CO2 incubator for 3 days • 5. Transfer 150 ul culture media into fresh plate • 6. 50 ul of the media is subject to Elisa analysis (R & D Cat #M4000 kit) FlashPlate ITK Protocol for ITK Inhibition Determination

IC50 (ITK) [nM] | IC50 [1] [nM] | melting point [°C] | SMILES
1.62 | 11.3 | – | OC1CCCN(CCCOc2ccc3cc(-c4n[nH]c5ccsc45)[nH]c3c2)C1 (stereo not drawn) [Example 8, 1-{3-[2-(1H-Thieno[3,2-c]pyrazol-3-yl)-1H-indol-6-yloxy]-propyl}-piperidin-3-ol]
5.22 | – | – | CCN(CC)CCCOc1ccc2cc(-c3n[nH]c4ccsc34)[nH]c2c1 [Example 12, Diethyl-{3-[2-(1H-thieno[3,2-c]pyrazol-3-yl)-1H-indol-6-yloxy]-propyl}-amine]
45.7 | – | – | OC1CCN(CCCOc2ccc3[nH]c(-c4n[nH]c5ccsc45)cc3c2)C1 (stereo not drawn) [Example 19, 1-{3-[2-(1H-Thieno[3,2-c]pyrazol-3-yl)-1H-indol-5-yloxy]-propyl}-pyrrolidin-3-ol]
24.2 | – | – | CN(C)CCCOc1ccc2cc(-c3n[nH]c4ccsc34)[nH]c2c1 [Example 11, Dimethyl-{3-[2-(1H-thieno[3,2-c]pyrazol-3-yl)-1H-indol-6-yloxy]-propyl}-amine]
2.08 | 129 | – | OCC1CCCN(CCCOc2ccc3cc(-c4n[nH]c5ccsc45)[nH]c3c2)C1 (stereo not drawn) [Example 9, (1-{3-[2-(1H-Thieno[3,2-c]pyrazol-3-yl)-1H-indol-6-yloxy]-propyl}-piperidin-3-yl)-methanol]
76.3 | – | – | OC1CCCN(CCCOc2ccc3[nH]c(-c4n[nH]c5ccsc45)cc3c2)C1 (stereo not drawn) [Example 17, 1-{3-[2-(1H-Thieno[3,2-c]pyrazol-3-yl)-1H-indol-5-yloxy]-propyl}-piperidin-3-ol]
16.6 | 153 | – | c1cc2[nH]nc(-c3cc4cc(OCCCN5CCCCC5)ccc4[nH]3)c2s1 [Example 5, 5-(3-Piperidin-1-yl-propoxy)-2-(1H-thieno[3,2-c]pyrazol-3-yl)-indole]
– | – | 205 to 207 | COc1cccc(-c2cc3[nH]nc(-c4cc5ccc(OCCCN6CCC(O)CC6)cc5[nH]4)c3s2)c1
41 | – | – | OCC1CCCN(CCCOc2ccc3[nH]c(-c4n[nH]c5ccsc45)cc3c2)C1 (stereo not drawn) [Example 18, (1-{3-[2-(1H-Thieno[3,2-c]pyrazol-3-yl)-1H-indol-5-yloxy]-propyl}-piperidin-3-yl)-methanol]

More lines, now with the values behind:

SMILES | IC50 (ITK) [nM] | IC50 [1] [nM] | melting point [°C]
OC1CCN(CCCOc2ccc3[nH]c(-c4n[nH]c5ccsc45)cc3c2)CC1 [Example 16, 1-{3-[2-(1H-Thieno[3,2-c]pyrazol-3-yl)-1H-indol-5-yloxy]-propyl}-piperidin-4-ol] | 40.9 | – | –
OC1CCN(CCCOc2ccc3cc(-c4n[nH]c5ccsc45)[nH]c3c2)C1 (stereo not drawn) [Example 14, 1-{3-[2-(1H-Thieno[3,2-c]pyrazol-3-yl)-1H-indol-6-yloxyl]-propyl}-pyrrolidin-3-ol] | 15.1 | – | –
COc1ccc2nc(-c3n[nH]c4c3sc3ccccc34)[nH]c2c1 [Example 3, 3-(6-Methoxy-1H-benzimidazol-2-yl)-1H-benzo[4,5]thieno[3,2-c-]pyrazole] | 86 | 2900 | –
OC1CCN(CCCOc2ccc3cc(-c4n[nH]c5ccsc45)[nH]c3c2)CC1 [Example 6, 1-{3-[2-(1H-Thieno[3,2-c]pyrazol-3-yl)-1H-indol-6-yloxy]-propyl}-piperidin-4-ol] | 3.65 | 180 | –
CN(CCO)CCCOc1ccc2cc(-c3n[nH]c4ccsc34)[nH]c2c1 [Example 15, 2-(Methyl-{3-[2-(1H-thieno[3,2-c]pyrazol-3-yl)-1H-indol-6-yloxy]-propyl}-amino)-ethanol] | 3.26 | – | –
O=C(c1cc2[nH]nc(-c3cc4cc(CO)ccc4[nH]3)c2s1)N1CCN(c2ccc(F)cc2)CC1 | – | – | 156 to 158
OC1CCN(CCCOc2ccc3cc(-c4n[nH]c5cc(-c6ccccc6)sc45)[nH]c3c2)CC1 | – | – | 239 to 242
C=CCN(CC=C)CCCOc1ccc2cc(-c3n[nH]c4ccsc34)[nH]c2c1 [Example 13, Diallyl-{3-[2-(1H-thieno[3,2-c]pyrazol-3-yl)-1H-indol-6-yloxy]-propyl}-amine] | 12.3 | – | –
CCN1CCN(CCCOc2ccc3cc(-c4n[nH]c5ccsc45)[nH]c3c2)CC1 [Example 10, 6-[3-(4-Ethyl-piperazin-1-yl)-propoxy]-2-(1H-thieno[3,2-c]pyrazol-3-yl)-1H-indole] | 2.94 | 289 | –
c1ccc2[nH]c(-c3n[nH]c4ccsc34)nc2c1 [Example 1, 2-(1H-Thieno[3,2-c]pyrazol-3-yl)-1H-benzimidazole] | 167 | 264 | –
c1cc2[nH]nc(-c3cc4ccc(OCCCN5CCCCC5)cc4[nH]3)c2s1 [Example 7, 6-(3-Piperidin-1-yl-propoxy)-2-(1H-thieno[3,2-c]pyrazol-3-yl)-1H-indole] | 1.89 | 163 | –
OC1CCCN(CCCOc2ccc3cc(-c4n[nH]c5cc(-c6ccccc6)sc45)[nH]c3c2)C1 (stereo not drawn) | – | – | 213 to 216
OC(c1ccc2cc(-c3n[nH]c4ccsc34)[nH]c2c1)(C1CC1)C1CC1 | – | – | 110 to 112
c1ccc2c(c1)sc1c(-c3nc4ccc(OCCCN5CCCCC5)cc4[nH]3)n[nH]c12 [Example 20, 3-(5-(3-Piperidin-1-yl-propoxy)-1H-Benzoimidazol-2-yl)-1H-benzo[4,5]thieno[3,2-c]pyrazole hydrochloride] | 112 | – | –
COc1ccc2nc(-c3n[nH]c4ccsc34)[nH]c2c1 [Example 2, 6-Methoxy-2-(1H-thieno[3,2-c]pyrazol-3-yl)-1H-benzoimidazole] | 157 | 164 | –
